In patent US9670210B2, “Cyclopropylamines as LSD1 inhibitors” (Incyte Corporation, priority 2014, dated 2017):

Target: LSD-1 enzyme (Homo sapiens (Human), UniProt O60341)
Protocol: LSD1 Histone Demethylase Biochemical Assay
LANCE LSD1/KDM1A demethylase assay-10 μL of 1 nM LSD-1 enzyme (ENZO BML-SE544-0050) in the assay buffer (50 mM Tris, pH 7.5, 0.01% Tween-20, 25 mM NaCl, 5 mM DTT) were preincubated for 1 hour at 25° C. with 0.8 μL compound/DMSO dotted in black 384 well polystyrene plates. […] After stopping the reactions plates were incubated for 30 minutes and read on a PHERAstar FS plate reader (BMG Labtech).

Row | Compound | IC50
1 | Fc1ccc(CN2CC(CN[C@@H]3C[C@H]3c3ccccc3)C2)cc1 (relative stereo) [Example 2, N-{[1-(4-Fluorobenzyl)azetidin-3-yl]methyl}-trans-2-phenylcyclopropanamine] | < 100 nM
2 | Fc1ccc(CN2CCC(N[C@@H]3C[C@H]3c3ccccc3)CC2)cc1 (relative stereo) [Example 5, 1-(4-Fluorobenzyl)-N-(trans-2-phenylcyclopropyl)piperidin-4-amine] | < 100 nM
3 | N#Cc1ccc(CN2CC(CN[C@@H]3C[C@H]3c3ccccc3)C2)cc1 (relative stereo) [Example 6, 4-[(3-{[(trans-2-Phenylcyclopropyl)amino]methyl}azetidin-1-yl)methyl]benzonitrile] | < 100 nM
4 | N#Cc1cccc(CN2CC(CN[C@@H]3C[C@H]3c3ccccc3)C2)c1 (relative stereo) [Example 7, 3-[(3-{[(trans-2-Phenylcyclopropyl)amino]methyl}azetidin-1-yl)methyl]benzonitrile] | < 100 nM
5 | N#CCC1(CN[C@@H]2C[C@H]2c2ccccc2)CCN(C(=O)c2cccc(F)c2)CC1 (relative stereo) [Example 8, (1-(3-Fluorobenzoyl)-4-{[(trans-2-phenylcyclopropyl)amino]methyl}piperidin-4-yl)acetonitrile] | < 100 nM
6 | N#CCC1(CN[C@@H]2C[C@H]2c2ccccc2)CCN(Cc2cccc(F)c2)CC1 (relative stereo) [Example 9, (1-(3-Fluorobenzyl)-4-{[(trans-2-phenylcyclopropyl)amino]methyl}piperidin-4-yl)acetonitrile] | < 100 nM
7 | N#CC1CCN(C(=O)N2CC(CN[C@@H]3C[C@H]3c3ccccc3)C2)CC1 (relative stereo) [Example 12, 1-[(3-{[(trans-2-Phenylcyclopropyl)amino]methyl}azetidin-1-yl)carbonyl]piperidine-4-carbonitrile] | < 100 nM
8 | O=C(N1CCC(C(F)(F)F)CC1)N1CC(CN[C@@H]2C[C@H]2c2ccccc2)C1 (relative stereo) [Example 13, Trans-2-phenyl-N-[(1-{[4-(trifluoromethyl)piperidin-1-yl]carbonyl}azetidin-3-yl)methyl]cyclopropanamine] | < 100 nM
9 | N#CC1(c2ccccc2)CCN(C(=O)N2CC(CN[C@@H]3C[C@H]3c3ccccc3)C2)CC1 (relative stereo) [Example 16, 4-Phenyl-1-[(3-{[(trans-2-phenylcyclopropyl)amino]methyl}azetidin-1-yl)carbonyl]piperidine-4-carbonitrile] | < 100 nM
10 | O=C(N1CCC(O)(c2ccccc2)CC1)N1CC(CN[C@@H]2C[C@H]2c2ccccc2)C1 (relative stereo) [Example 17, 4-Phenyl-1-[(3-{[(trans-2-phenylcyclopropyl)amino]methyl}azetidin-1-yl)carbonyl]piperidin-4-ol] | < 100 nM
11 | O=C(N1CCC2(CC1)CNc1ccc(F)cc12)N1CC(CN[C@@H]2C[C@H]2c2ccccc2)C1 (relative stereo) [Example 18, N-({1-[(5-Fluoro-1,2-dihydro-spiro[indole-3,4′-piperidin]-1′-yl)carbonyl]azetidin-3-yl}methyl)-trans-2-phenylcyclopropanamine] | < 100 nM
12 | O=C(Nc1ccccc1F)N1CC(CN[C@@H]2C[C@H]2c2ccccc2)C1 (relative stereo) [Example 19, N-(2-Fluorophenyl)-3-{[(trans-2-phenylcyclopropyl)amino]methyl}azetidine-1-carboxamide] | < 100 nM
13 | O=C(Nc1cccc(F)c1)N1CC(CN[C@@H]2C[C@H]2c2ccccc2)C1 (relative stereo) [Example 20, N-(3-Fluorophenyl)-3-{[(trans-2-phenylcyclopropyl)amino]methyl}azetidine-1-carboxamide] | < 100 nM
14 | O=C(Nc1ccc(F)cc1)N1CC(CN[C@@H]2C[C@H]2c2ccccc2)C1 (relative stereo) [Example 21, N-(4-Fluorophenyl)-3-{[(trans-2-phenylcyclopropyl)amino]methyl}azetidine-1-carboxamide] | < 100 nM
15 | COc1ccc(NC(=O)N2CC(CN[C@@H]3C[C@H]3c3ccccc3)C2)cc1 (relative stereo) [Example 22, N-(4-Methoxyphenyl)-3-{[(trans-2-phenylcyclopropyl)amino]methyl}azetidine-1-carboxamide] | < 100 nM
16 | COc1cccc(NC(=O)N2CC(CN[C@@H]3C[C@H]3c3ccccc3)C2)c1 (relative stereo) [Example 23, N-(3-Methoxyphenyl)-3-{[(trans-2-phenylcyclopropyl)amino]methyl}azetidine-1-carboxamide] | < 100 nM
17 | COc1ccccc1NC(=O)N1CC(CN[C@@H]2C[C@H]2c2ccccc2)C1 (relative stereo) [Example 24, N-(2-Methoxyphenyl)-3-{[(trans-2-phenylcyclopropyl)amino]methyl}azetidine-1-carboxamide] | < 100 nM
18 | N#Cc1ccc(C(=O)N2CC(CN[C@@H]3C[C@H]3c3ccccc3)C2)cc1 (relative stereo) [Example 25, 4-[(3-{[(trans-2-Phenylcyclopropyl)amino]methyl}azetidin-1-yl)carbonyl]benzonitrile] | < 100 nM

Row | Compound | IC50
19 | N#Cc1cccc(C(=O)N2CC(CN[C@@H]3C[C@H]3c3ccccc3)C2)c1 (relative stereo) [Example 26, 3-[(3-{[(trans-2-Phenylcyclopropyl)amino]methyl}azetidin-1-yl)carbonyl]benzonitrile] | < 100 nM
20 | COc1cccc(C(=O)N2CC(CN[C@@H]3C[C@H]3c3ccccc3)C2)c1 (relative stereo) [Example 27, N-{[1-(3-Methoxybenzoyl)azetidin-3-yl]methyl}-trans-2-phenylcyclopropanamine] | < 100 nM
21 | O=C(c1ccc(F)cc1)N1CC(CN[C@@H]2C[C@H]2c2ccccc2)C1 (relative stereo) [Example 28, N-{[1-(4-Fluorobenzoyl)azetidin-3-yl]methyl}-trans-2-phenylcyclopropanamine] | < 100 nM
22 | O=C(c1cccc(F)c1)N1CC(CN[C@@H]2C[C@H]2c2ccccc2)C1 (relative stereo) [Example 29, N-{[1-(3-Fluorobenzoyl)azetidin-3-yl]methyl}-trans-2-phenylcyclopropanamine] | < 100 nM
23 | O=S(=O)(c1ccc(OC(F)(F)F)cc1)N1CC(CN[C@@H]2C[C@H]2c2ccccc2)C1 (relative stereo) [Example 30, Trans-2-phenyl-N-[(1-{[4-(trifluoromethoxy)phenyl]sulfonyl}azetidin-3-yl)methyl]cyclopropanamine] | < 100 nM
24 | O=C(N1CC(CNC2CC2c2ccccc2)C1)N1CCC[C@@]2(CCN(C3CCC(O)CC3)C2=O)C1 (stereo in doubt) [Example 10, (5R)-2-(cis-4-Hydroxycyclohexyl)-7-[(3-{[(trans-2-phenylcyclopropyl)amino]methyl}azetidin-1-yl)carbonyl]-2,7-diazaspiro[4.5]decan-1-one] | < 100 nM
25 | O=C(N1CC(CNC2CC2c2ccccc2)C1)N1CCC[C@]2(CCN(C3CCC(O)CC3)C2=O)C1 (stereo partly drawn) [Example 11, (5S)-2-(cis-4-Hydroxycyclohexyl)-7-[(3-{[(trans-2-phenylcyclopropyl)amino]methyl}azetidin-1-yl)carbonyl]-2,7-diazaspiro[4.5]decan-1-one] | < 100 nM
26 | O=C(N1CC(CNC2CC2c2ccccc2)C1)N1CCCC(Oc2ccccc2)C1 (stereo not drawn) [Example 14, N-({1-[(3-Phenoxypiperidin-1-yl)carbonyl]azetidin-3-yl}methyl)-trans-2-phenylcyclopropanamine] | < 100 nM
27 | COC1CCCN(C(=O)N2CC(CNC3CC3c3ccccc3)C2)C1 (stereo not drawn) [Example 15, N-({1-[(3-Methoxypiperidin-1-yl)carbonyl]azetidin-3-yl}methyl)-trans-2-phenylcyclopropanamine] | < 100 nM
28 | O=C(O)C1(CN2CCC(CN[C@@H]3C[C@H]3c3ccccc3)(Cc3ccc(F)cc3)CC2)CC1 [Example 31, 1-{[4-(4-fluorobenzyl)-4-({[(1R,2S)-2-phenylcyclopropyl]amino}methyl)piperidin-1-yl]methyl}cyclopropanecarboxylic acid] | < 100 nM
29 | O=C(O)C1(CN2CCC(CN[C@@H]3C[C@H]3c3ccccc3)(Cc3ccc(F)cc3)CC2)CCC1 [Example 32, 1-{[4-(4-fluorobenzyl)-4-({[(1R,2S)-2-phenylcyclopropyl]amino}methyl)piperidin-1-yl]methyl}cyclobutanecarboxylic acid] | < 100 nM
30 | N[C@H]1CC[C@H](C(=O)N2CCC(CN[C@@H]3C[C@H]3c3ccccc3)(Cc3ccc(F)cc3)CC2)CC1 [Example 33, trans-4-{[4-(4-fluorobenzyl)-4-({[(1R,2S)-2-phenylcyclopropyl]amino}methyl)piperidin-1-yl]carbonyl}cyclohexanamine] | < 100 nM
31 | NC1(C(=O)N2CCC(CN[C@@H]3C[C@H]3c3ccccc3)(Cc3ccc(F)cc3)CC2)CCC1 [Example 34, 1-{[4-(4-fluorobenzyl)-4-({[(1R,2S)-2-phenylcyclopropyl]amino}methyl)piperidin-1-yl]carbonyl}cyclobutanamine] | < 100 nM
32 | COCC1(CN[C@@H]2C[C@H]2c2ccccc2)CCN(CC2(C(=O)O)CC2)CC1 [Example 35, 1-{[4-(methoxymethyl)-4-({[(1R,2S)-2-phenylcyclopropyl]amino}methyl)piperidin-1-yl]methyl}cyclopropanecarboxylic acid] | < 100 nM
33 | COCC1(CN[C@@H]2C[C@H]2c2ccccc2)CCN(CC2(C(=O)O)CCCC2)CC1 [Example 37, 1-{[4-(methoxymethyl)-4-({[(1R,2S)-2-phenylcyclopropyl]amino}methyl)piperidin-1-yl]methyl}cyclopentanecarboxylic acid] | < 100 nM
34 | COCC1(CN[C@@H]2C[C@H]2c2ccccc2)CCN(C(=O)[C@@H]2CCCN2C)CC1 [Example 38, (1R,2S)—N-[(4-(methoxymethyl)-1-{[(2S)-1-methylpyrrolidin-2-yl]carbonyl}piperidin-4-yl)methyl]-2-phenylcyclopropanamine] | < 100 nM
35 | COCC1(CN[C@@H]2C[C@H]2c2ccccc2)CCN(C(=O)c2cn(C)cn2)CC1 [Example 39, (1R,2S)—N-({4-(methoxymethyl)-1-[(1-methyl-1H-imidazol-4-yl)carbonyl]piperidin-4-yl}methyl)-2-phenylcyclopropanamine] | < 100 nM
